Source: ChEMBL document CHEMBL3885861, “Open TG-GATES”

Organism: Rattus norvegicus
Assay: Open TG-GATES - Regimen: Daily Repeat
Format: toxicity, organism-based, Sprague-Dawley
Parameters: regimen Daily Repeat, gender Male, age 6 weeks
Settings: in vivo, po, route gavage; for APTT / Bas / Eos / Fbg / Hb / Ht / Lym / MCHC / MCV / Mono / Neu / PT / Plat / RBC / Ret / WBC: tissue Blood; for KIDNEY_L / KIDNEY_R / KIDNEY_TOTAL: tissue Kidney; for LIVER: tissue Liver; for ALP / ALT / AST / BUN / CRE / Ca / Cl / DBIL / GLC / IP / K / LDH / Na / PL / RALB / TBIL / TC / TG / TP / gamma-GTP: tissue Plasma
[1] = 50 mg/kg, 72 h, dose level Middle, time 3 day
[2] = 50 mg/kg, […], dose level Middle, time 7 day
[3] = 50 mg/kg, […], dose level Middle, time 14 day
[4] = 50 mg/kg, […], dose level Middle, time 28 day
[5] = 150 mg/kg, 72 h, dose level High, time 3 day
[6] = 150 mg/kg, […], dose level High, time 7 day
[7] = 150 mg/kg, […], dose level High, time 14 day
[8] = 150 mg/kg, […], dose level High, time 28 day

C1CCC(C(CC2CCCCN2)C2CCCCC2)CC1 (stereo not drawn) [PERHEXILINE]
TERMINAL_BW [1]: 222.3 g
APTT [1]: 19.9 s
Bas [1]: 0%
Eos [1]: 1%
Fbg [1]: 339.8 mg/dL
Hb [1]: 13.5 g/dL
Ht [1]: 40.4%
Lym [1]: 72.2%
MCHC [1]: 33.4%
MCV [1]: 62.8 fL
Mono [1]: 2.2%
Neu [1]: 23.2%
PT [1]: 16.5 s
Plat [1]: 125.7 x10_4/uL
RBC [1]: 643.2 x10_4/ul
Ret [1]: 6.1%
WBC [1]: 117.4 x10_2/uL
KIDNEY_L [1]: 1 g
KIDNEY_R [1]: 1 g
KIDNEY_TOTAL [1]: 2.1 g
LIVER [1]: 10.7 g
ALP [1]: 1647.4 IU/L
ALT [1]: 40 IU/L
AST [1]: 70.2 IU/L
BUN [1]: 13.6 mg/dL
CRE [1]: 0.1 mg/dL
Ca [1]: 10.8 mg/dL
Cl [1]: 107 meq/L
DBIL [1]: 0 mg/dL
GLC [1]: 184.8 mg/dL
IP [1]: 7.6 mg/dL
K [1]: 4.1 meq/L
LDH [1]: 241.2 IU/L
Na [1]: 141.8 meq/L
PL [1]: 146.8 mg/dL
RALB [1]: 3 g/dL
TBIL [1]: 0.008 mg/dL
TC [1]: 72.8 mg/dL
TG [1]: 125 mg/dL
TP [1]: 5.6 g/dL
gamma-GTP [1]: 0.8 IU/L
TERMINAL_BW [2]: 248.7 g
TERMINAL_BW [3]: 302.3 g
TERMINAL_BW [4]: 361.8 g
APTT [2]: 22.2 s
Bas [2]: 0%
Eos [2]: 0.6%
Fbg [2]: 314 mg/dL
Hb [2]: 14.1 g/dL
Ht [2]: 41.6%
Lym [2]: 79.8%
MCHC [2]: 33.9%
MCV [2]: 62.6 fL
Mono [2]: 1.6%
Neu [2]: 16.6%
PT [2]: 15.8 s
Plat [2]: 113.7 x10_4/uL
RBC [2]: 666.4 x10_4/ul
Ret [2]: 4.7%
WBC [2]: 85.4 x10_2/uL
APTT [3]: 23.1 s
Bas [3]: 0%
Eos [3]: 0.4%
Fbg [3]: 303 mg/dL
Hb [3]: 14 g/dL
Ht [3]: 40.8%
Lym [3]: 82.2%
MCHC [3]: 34.3%
MCV [3]: 61.7 fL
Mono [3]: 1.4%
Neu [3]: 15%
PT [3]: 15.8 s
Plat [3]: 118.8 x10_4/uL
RBC [3]: 662.8 x10_4/ul
Ret [3]: 5.3%
WBC [3]: 116.6 x10_2/uL
APTT [4]: 22.2 s
Bas [4]: 0%
Eos [4]: 0.6%
Fbg [4]: 314 mg/dL
Hb [4]: 14.1 g/dL
Ht [4]: 41.6%
Lym [4]: 79.8%
MCHC [4]: 33.9%
MCV [4]: 62.6 fL
Mono [4]: 1.6%
Neu [4]: 16.6%
PT [4]: 15.8 s
Plat [4]: 113.7 x10_4/uL
RBC [4]: 666.4 x10_4/ul
Ret [4]: 4.7%
WBC [4]: 85.4 x10_2/uL
KIDNEY_L [2]: 1 g
KIDNEY_R [2]: 1 g
KIDNEY_TOTAL [2]: 2.1 g
KIDNEY_L [3]: 1.2 g
KIDNEY_R [3]: 1.2 g
KIDNEY_TOTAL [3]: 2.3 g
KIDNEY_L [4]: 1.3 g
KIDNEY_R [4]: 1.3 g
KIDNEY_TOTAL [4]: 2.5 g
LIVER [2]: 11.3 g
LIVER [3]: 12.9 g
LIVER [4]: 15 g
ALP [2]: 1686.4 IU/L
ALT [2]: 38.8 IU/L
AST [2]: 67 IU/L
BUN [2]: 18 mg/dL
CRE [2]: 0.2 mg/dL
Ca [2]: 10.5 mg/dL
Cl [2]: 106.2 meq/L
DBIL [2]: 0 mg/dL
GLC [2]: 202 mg/dL
IP [2]: 7.3 mg/dL
K [2]: 4.1 meq/L
LDH [2]: 192 IU/L
Na [2]: 142.8 meq/L
PL [2]: 166.2 mg/dL
RALB [2]: 3.1 g/dL
TBIL [2]: 0.004 mg/dL
TC [2]: 78.4 mg/dL
TG [2]: 181 mg/dL
TP [2]: 5.8 g/dL
gamma-GTP [2]: 1 IU/L
ALP [3]: 1470.4 IU/L
ALT [3]: 42.2 IU/L
AST [3]: 76.6 IU/L
BUN [3]: 18.6 mg/dL
CRE [3]: 0.2 mg/dL
Ca [3]: 10.7 mg/dL
Cl [3]: 107.4 meq/L
DBIL [3]: 0 mg/dL
GLC [3]: 209.8 mg/dL
IP [3]: 6.5 mg/dL
K [3]: 4.2 meq/L
LDH [3]: 231.4 IU/L
Na [3]: 143.2 meq/L
PL [3]: 155.2 mg/dL
RALB [3]: 3 g/dL
TBIL [3]: 0.002 mg/dL
TC [3]: 72.2 mg/dL
TG [3]: 178.6 mg/dL
TP [3]: 5.8 g/dL
gamma-GTP [3]: 1.6 IU/L
ALP [4]: 1171.8 IU/L
ALT [4]: 39.8 IU/L
AST [4]: 67.2 IU/L
BUN [4]: 18.8 mg/dL
CRE [4]: 0.2 mg/dL
Ca [4]: 10.4 mg/dL
Cl [4]: 107 meq/L
DBIL [4]: 0 mg/dL
GLC [4]: 209.2 mg/dL
IP [4]: 6.6 mg/dL
K [4]: 4 meq/L
LDH [4]: 186.8 IU/L
Na [4]: 143 meq/L
PL [4]: 156.4 mg/dL
RALB [4]: 3.1 g/dL
TBIL [4]: 0.004 mg/dL
TC [4]: 71.6 mg/dL
TG [4]: 157.4 mg/dL
TP [4]: 6.1 g/dL
gamma-GTP [4]: 1.4 IU/L
TERMINAL_BW [5]: 212.7 g
APTT [5]: 22.7 s
Bas [5]: 0%
Eos [5]: 0.8%
Fbg [5]: 312.8 mg/dL
Hb [5]: 13.9 g/dL
Ht [5]: 41.3%
Lym [5]: 80%
MCHC [5]: 33.8%
MCV [5]: 61.4 fL
Mono [5]: 1.8%
Neu [5]: 16.5%
PT [5]: 16.8 s
Plat [5]: 130.8 x10_4/uL
RBC [5]: 673.2 x10_4/ul
Ret [5]: 4.4%
WBC [5]: 100 x10_2/uL
KIDNEY_L [5]: 1 g
KIDNEY_R [5]: 0.9 g
KIDNEY_TOTAL [5]: 1.9 g
LIVER [5]: 9.8 g
ALP [5]: 1606.6 IU/L
ALT [5]: 43.6 IU/L
AST [5]: 69 IU/L
BUN [5]: 15.4 mg/dL
CRE [5]: 0.2 mg/dL
Ca [5]: 11 mg/dL
Cl [5]: 106.6 meq/L
DBIL [5]: 0.002 mg/dL
GLC [5]: 187.2 mg/dL
IP [5]: 7.4 mg/dL
K [5]: 4 meq/L
LDH [5]: 267.2 IU/L
Na [5]: 142.4 meq/L
PL [5]: 150 mg/dL
RALB [5]: 3 g/dL
TBIL [5]: 0.006 mg/dL
TC [5]: 75.6 mg/dL
TG [5]: 107.8 mg/dL
TP [5]: 5.4 g/dL
gamma-GTP [5]: 1 IU/L
TERMINAL_BW [6]: 255.5 g
TERMINAL_BW [7]: 291.9 g
TERMINAL_BW [8]: 322.6 g
APTT [6]: 23.3 s
Bas [6]: 0%
Eos [6]: 0.6%
Fbg [6]: 313.8 mg/dL
Hb [6]: 14.3 g/dL
Ht [6]: 42.2%
Lym [6]: 79%
MCHC [6]: 33.9%
MCV [6]: 63.4 fL
Mono [6]: 1.4%
Neu [6]: 17.8%
PT [6]: 15.5 s
Plat [6]: 120.2 x10_4/uL
RBC [6]: 665.4 x10_4/ul
Ret [6]: 5.2%
WBC [6]: 103.4 x10_2/uL
APTT [7]: 22.3 s
Bas [7]: 0%
Eos [7]: 0.8%
Fbg [7]: 311 mg/dL
Hb [7]: 14.4 g/dL
Ht [7]: 41.8%
Lym [7]: 72%
MCHC [7]: 34.4%
MCV [7]: 59.9 fL
Mono [7]: 2.2%
Neu [7]: 24%
PT [7]: 15.8 s
Plat [7]: 115.8 x10_4/uL
RBC [7]: 697.8 x10_4/ul
Ret [7]: 4.7%
WBC [7]: 121.2 x10_2/uL
APTT [8]: 23.3 s
Bas [8]: 0%
Eos [8]: 0.6%
Fbg [8]: 313.8 mg/dL
Hb [8]: 14.3 g/dL
Ht [8]: 42.2%
Lym [8]: 79%
MCHC [8]: 33.9%
MCV [8]: 63.4 fL
Mono [8]: 1.4%
Neu [8]: 17.8%
PT [8]: 15.5 s
Plat [8]: 120.2 x10_4/uL
RBC [8]: 665.4 x10_4/ul
Ret [8]: 5.2%
WBC [8]: 103.4 x10_2/uL
KIDNEY_L [6]: 1.1 g
KIDNEY_R [6]: 1.2 g
KIDNEY_TOTAL [6]: 2.3 g
KIDNEY_L [7]: 1.2 g
KIDNEY_R [7]: 1.2 g
KIDNEY_TOTAL [7]: 2.4 g
KIDNEY_L [8]: 1.2 g
KIDNEY_R [8]: 1.2 g
KIDNEY_TOTAL [8]: 2.5 g
LIVER [6]: 11.9 g
LIVER [7]: 13 g
LIVER [8]: 12.8 g
ALP [6]: 1641 IU/L
ALT [6]: 35 IU/L
AST [6]: 61.8 IU/L
BUN [6]: 17.8 mg/dL
CRE [6]: 0.2 mg/dL
Ca [6]: 10.6 mg/dL
Cl [6]: 106.2 meq/L
DBIL [6]: 0 mg/dL
GLC [6]: 197.6 mg/dL
IP [6]: 8.1 mg/dL
K [6]: 4.3 meq/L
LDH [6]: 200.4 IU/L
Na [6]: 142.8 meq/L
PL [6]: 158.4 mg/dL
RALB [6]: 3 g/dL
TBIL [6]: 0.006 mg/dL
TC [6]: 76 mg/dL
TG [6]: 138.4 mg/dL
TP [6]: 5.7 g/dL
gamma-GTP [6]: 1.4 IU/L
ALP [7]: 1470.2 IU/L
ALT [7]: 38 IU/L
AST [7]: 63.2 IU/L
BUN [7]: 18.2 mg/dL
CRE [7]: 0.2 mg/dL
Ca [7]: 10.7 mg/dL
Cl [7]: 105.8 meq/L
DBIL [7]: 0.004 mg/dL
GLC [7]: 206.6 mg/dL
IP [7]: 7.2 mg/dL
K [7]: 4.2 meq/L
LDH [7]: 180.2 IU/L
Na [7]: 143 meq/L
PL [7]: 151.8 mg/dL
RALB [7]: 3 g/dL
TBIL [7]: 0.008 mg/dL
TC [7]: 70 mg/dL
TG [7]: 154.6 mg/dL
TP [7]: 5.8 g/dL
gamma-GTP [7]: 1.2 IU/L
ALP [8]: 1254 IU/L
ALT [8]: 39.8 IU/L
AST [8]: 62.8 IU/L
BUN [8]: 16 mg/dL
CRE [8]: 0.2 mg/dL
Ca [8]: 10.4 mg/dL
Cl [8]: 107.2 meq/L
DBIL [8]: 0 mg/dL
GLC [8]: 199.2 mg/dL
IP [8]: 6.4 mg/dL
K [8]: 4 meq/L
LDH [8]: 162.8 IU/L
Na [8]: 144.2 meq/L
PL [8]: 148 mg/dL
RALB [8]: 3 g/dL
TBIL [8]: 0.006 mg/dL
TC [8]: 68 mg/dL
TG [8]: 150.4 mg/dL
TP [8]: 5.9 g/dL
gamma-GTP [8]: 1 IU/L
